This passage reports AC40 results from PubChem BioAssay AID651717 (Broad Institute, 2012).

The test relates to mESC Bmi1-luciferase reporter, firefly/renilla ratio, 24 h. Briefly: Bmi1-luciferase reporter activators in mESC, dose response, esBAF inhibitor project, mouse embryonic stem cells, cherry-pick (AID 651717).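 Note: luciferase knocked into Bmi1 locus with EF-1a renilla as cell number control; rising ratio signals esBAF inhibition which derepresses Bmi1.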
On to `CN(C)c1ccc(-c2ccc3oc(-c4ccsc4)cc(=O)c3c2)cn1`, for which the AC40 is 2.73 µM. Regarding `O=C1C(=C2CCc3ccccc32)Cc2ccccc21`, the AC40 was 0.363 µM. The result for `O=C(Nc1ccccn1)c1ccc(Cl)c(S(=O)(=O)N2CCCCCC2)c1` reads 10.4 µM; that for `CC(C)Cc1cc(C(=O)Nc2ccc(Br)cc2)no1`, 2.96 µM; that for `Cc1ccc(-c2ccc(CCC(=O)O)n2-c2cccc(O)c2)cc1`, 10.1 µM. The result for `CC(=O)c1ccc(NC(=O)CNCc2cccs2)cc1` reads 12.3 µM; that for `C=CCn1c(=O)c(C(=O)Nc2ccc(C)cc2)c(O)c2ccccc21`, 13.1 µM; that for `CSc1ccccc1NC(=O)c1cc(C(C)C)on1`, 3.11 µM. The result for `COc1ccccc1/C=C/C=N/n1c(-c2ccccn2)n[nH]c1=S` reads 9.01 µM; that for `COc1ccc(Cc2c(-c3ccccc3)nc3ccc(Br)cn23)c(C)c1`, 8.9 µM. On to `Cc1cc(C)c2c(CN(C)Cc3ccccc3)cc(=O)oc2c1`, for which the AC40 is 4.9 µM. As for `O=C(Nc1cccc(Cl)c1Cl)c1ccc(-c2ccccc2)cc1`, the figure is 3.54 µM. The result for `Oc1ccc(-c2cccc(-c3ccc(O)cc3)c2)cc1` reads 6.78 µM; that for `COC(=O)C(Cc1ccc(OC(=O)c2ccc(Cl)cc2)cc1)N1Cc2ccccc2C1=O` (configuration not stated), 3.13 µM.

Regarding `O=C(c1noc2c1CCCC2)N1CCc2ccccc2C1`, the AC40 was 2.99 µM. On to `CC(=O)c1ccc(NC(=O)c2cc(C)nc3ccccc23)cc1`, for which the AC40 is 3.55 µM. As for `Cc1ccc(NC(=O)CN(C)S(=O)(=O)c2cccs2)cc1C`, the figure is 2.98 µM. Consider `COc1ccc(Nc2nc(C)c(C(C)=O)s2)cc1`, for which the AC40 is 4.13 µM. Turning to `CC(=O)Nc1ccc(NC(=O)c2cc(-c3ccc(F)cc3C)n[nH]2)cc1`, the AC40 was 7.08 µM.

`O=C(NC1CCCCC1)c1ccc(-c2ccccc2)cc1`: the AC40 was 3.77 µM. As for `CN(Cc1nccs1)C(=O)c1ccc2nc(Cc3ccccc3F)oc2c1`, the figure is 0.952 µM; as for `O=C(NN=Cc1ccc2c(c1)CCC2)c1ccccc1O`, 2.45 µM.

For the compound `COc1ccc2cc(C(=O)N(C)CC(=O)Nc3ccccc3Br)ccc2c1`, the AC40 is 5.86 µM.

For `O=C(Cn1c(/C=C/c2ccccc2)nc2ccccc21)Nc1ccc(F)cc1`, the AC40 is 2.78 µM. Turning to `COc1ccc(-n2nc(C(=O)NCC(=O)N3CCCC3)c3ccccc3c2=O)cc1Cl`, the AC40 was 20.9 µM. In the case of `COc1ccc(-c2csc(C(O)c3ccccc3)n2)cn1` (configuration not stated), the AC40 is 9.65 µM. As for `CC(=O)Nc1ccc(-c2nc3c(C)cccc3[nH]2)cc1`, the figure is 1.25 µM; as for `CC(=O)N1N=C(c2ccc(Br)cc2)CC1c1ccc(Br)cc1` (configuration not stated), 14.5 µM; as for `C(=N\N1CCN(c2ccccc2)CC1)/c1ccccc1`, 4.79 µM. For `C=CCn1c(-c2ccc(N)cc2)nc2ccccc21`, the AC40 is 0.806 µM. As for `CCS(=O)(=O)n1nc(-c2ccc(OC)cc2)nc1SC`, the figure is 5.54 µM. As for `Nc1nc(SCc2ccccc2)c2ncn(C3CCCCC3)c2n1`, the figure is 2.09 µM; as for `O=C(NNC(=O)c1cccc2ccccc12)c1ccc(Cl)cc1Cl`, 12.7 µM.

For `Cc1cccc(-c2noc(Cc3ccccc3)n2)c1`, the AC40 was 2.87 µM. The result for `CC(C)c1ccc(/C=N/NC(=O)CCNC(=O)c2ccccc2)cc1` reads 22.8 µM; that for `Oc1ccccc1C=NN1CCCCCC1`, 1.93 µM; that for `CC(C)c1ccc(CNNC(=O)c2ccccc2)cc1`, 2.18 µM. The result for `NC(=O)c1ccccc1-c1nc(-c2ccccc2)no1` reads 4.23 µM; that for `CC1CCc2c(sc(NC(=O)c3cccn3C)c2C(N)=O)C1` (configuration not stated), 3.63 µM. As for `Cc1cc(Cl)nc(NC(=O)Nc2cccc(Cl)c2)n1`, the figure is 0.66 µM. Regarding `C#CCN(CC=C)C(=O)CCc1nnc(COc2ccccc2)o1`, the AC40 was 22.4 µM. As for `N#Cc1c(/N=C/c2cccs2)sc2c1CCC2`, the figure is 0.897 µM; as for `COC(=O)c1ccc(COC(=O)c2ccc(SC)cc2OC)cc1`, 8.51 µM; as for `Cc1ccc(NC(=O)CN2C(=O)N/C(=C/c3ccccc3OCc3cccc(C(=O)O)c3)C2=O)cc1`, 2.65 µM. The result for `CC(=O)Oc1ccc(-c2cc3ccccc3oc2=O)cc1` reads 3.22 µM; that for `C/C(=N\OCc1ccc(C#N)cc1)c1ccc(S(=O)(=O)N(C)C)cc1`, 7.91 µM; that for `O=C(Nc1cccc(O)c1)c1ccc(Br)cc1`, 2.45 µM. With `Cc1ccc(C)c(N2CCN(C(=O)CCc3nc(-c4cccc(C(F)(F)F)c4)no3)CC2)c1`, the AC40 was 7.5 µM.

Turning to `CCSc1nnc(Nc2ccccc2)s1`, the AC40 was 11.1 µM. The result for `COc1cccc(N(C(=O)c2cccs2)c2nc3ccccc3s2)c1` reads 3.76 µM. `Cc1ccc(C(=O)NCCc2nnc(SCC(=O)Nc3nc(-c4ccccc4)cs3)n2C)cc1`: the AC40 is 17.2 µM.

Regarding `ClCCn1cnc2c(SCc3ccccc3)ncnc21`, the AC40 was 2.74 µM. As for `CC(=O)Nc1cnc(-c2cc(C)c(O)c(C)c2)cn1`, the figure is 12 µM; as for `Cc1cccc(Oc2ccc(Cl)cc2N)c1`, 5.77 µM. The result for `CCCCCn1c(=O)c(C(=O)Nc2ccccc2Cl)c(O)c2ccccc21` reads 5.14 µM; that for `COc1ccc(C(=O)NCCS(=O)(=O)NCCc2ccccc2)cc1`, 0.726 µM.

Regarding `CC1CCCN(C(=O)CNC(=O)c2sc3ccccc3c2Cl)C1` (configuration not stated), the AC40 is 3.96 µM. For the compound `OC(c1ccccc1)c1nc(/C=C/c2ccccc2)cs1` (configuration not stated), the AC40 was 4.88 µM.

For the compound `c1ccc(CCc2nc(-c3cccnc3)no2)cc1`, the AC40 is 1.64 µM. The result for `Cc1ccc(NC(=O)Nc2cccc(C)n2)c(C)c1` reads 6.01 µM.

For the compound `CN(C)c1ccc(CNc2nc3cc(-c4ccc(F)cc4)sc3c(=O)n2C)cc1`, the AC40 was 2.12 µM. Regarding `COC(=O)c1sccc1NC(=O)c1ccc(OC)cc1`, the AC40 is 6.81 µM.

Consider `COc1ccc(C(=O)Nc2ccc(C3CC3(Cl)Cl)cc2)cc1` (configuration not stated), for which the AC40 is 7.09 µM. As for `O=C(CCc1nnc(C2(c3ccc(Cl)cc3)CCC2)o1)N1CCCC1`, the figure is 3.99 µM. Consider `CC(C)NC(=O)CCc1nnc(Cc2cccc(C(F)(F)F)c2)o1`, for which the AC40 is 15.3 µM. On to `O=C(O)c1ccc2noc(-c3ccccc3)c2c1`, for which the AC40 was 1.54 µM. With `CCCN1C[C@@H](C)[C@H](OC)CN(C)C(=O)c2cc(NC(=O)c3ccccc3F)ccc2OC[C@H]1C`, the AC40 is 5.77 µM. The result for `COC(=O)C(Cc1c[nH]c2ccccc12)NC(=O)c1ccc2nc[nH]c2c1` (configuration not stated) reads 14.7 µM; that for `CCCCc1nc2cc(C(=O)N3CCCCC3C(=O)OC)ccc2o1` (configuration not stated), 13 µM; that for `O=C(Nc1ccccc1Cl)c1cc(=O)c2ccccc2o1`, 0.468 µM. As for `O=c1c2ccccc2sc2ccccc12`, the figure is 2.41 µM. As for `COc1cc2c(cc1OC)C(=Cc1ccc(N(C)C)cc1)C=C2`, the figure is 2.44 µM; as for `CCCC1c2ccc(C)n2CCN1C(=O)Nc1ccccc1Cl` (configuration not stated), 6.07 µM. On to `Nc1cc2c(cc1Cl)-c1ccccc1C2`, for which the AC40 is 6.53 µM. The result for `COc1cc(C(=O)Oc2ccccc2/C=N/NC(=O)c2ccc(Cl)cc2Cl)cc(OC)c1OC` reads 1.1 µM; that for `O=C(CNC(=O)c1ccccc1F)Nc1ccc2c(c1)OCO2`, 3.55 µM.

Turning to `O=C(Nc1cccnc1Cl)c1cc(-c2ccccc2O)on1`, the AC40 is 1.09 µM. Take `CNC(=O)c1ccc(-c2ccccc2)s1`: the AC40 is 5.62 µM. As for `CC(C)CN=c1cc(-c2ccccc2)oc2ccc(Cl)cc12`, the figure is 2.27 µM; as for `COc1ccc(C(=O)N2CCc3ccccc32)cc1`, 5.97 µM; as for `O=C(CCCc1ccccn1)c1ccc(-c2ccccc2)cc1`, 4.03 µM. The result for `COc1ccc(CN(C(=O)CSc2nnc(-c3c[nH]c4ccccc34)o2)c2ccc(F)cc2)cc1OC` reads 7.04 µM. The result for `Cc1cc(Cl)c(O)c(-n2nc3ccccc3n2)c1` reads 5.74 µM; that for `COc1cc(/C=N/NC(=O)c2nnn(-c3nonc3N)c2C)ccc1OCc1ccc(Cl)cc1`, 19.7 µM.

`CCn1c(O)c(/C=C2\C=Nc3ccccc32)sc1=Nc1ccccc1`: the AC40 is 14.2 µM. `O=C(c1ccc2ccccc2c1)N1CCN(Cc2ccccc2)CC1`: the AC40 was 9.83 µM. For the compound `O=C(OCc1ccccc1)N1CCC2CC1c1cc(/C=C/CCCSc3ncccn3)ccc12` (configuration not stated), the AC40 was 12.2 µM. Take `C(=NN=Cc1c[nH]c2ccccc12)c1c[nH]c2ccccc12`: the AC40 is 3.9 µM.

In the case of `COc1ccc(Cl)cc1C(=O)NNC(=O)c1cccs1`, the AC40 was 4.75 µM. For the compound `O=c1cc(-c2ccsc2)oc2ccc(-c3ccc4cc[nH]c4c3)cc12`, the AC40 is 9.01 µM.

As for `CC/C(=N\NC(=O)c1cc(C2CC2)[nH]n1)c1ccccc1`, the AC40 is 4.25 µM.

Regarding `C=CCNc1nc(NCc2ccc(NC(C)=O)cc2)c2sc(-c3ccccc3)cc2n1`, the AC40 was 0.635 µM. The result for `N/C(=N\OC(=O)Cc1cccs1)c1ccc(Cl)cc1` reads 18.1 µM; that for `COc1ccc(-c2csc(C(O)c3ccccc3)n2)cc1` (configuration not stated), 5.06 µM; that for `C=CCSC1=NNC(c2ccc(C(C)(C)C)cc2)=NN1`, 8.49 µM.

With `Cc1sc(NC(=O)c2cccs2)nc1-c1ccccc1`, the AC40 was 5.47 µM.

For `Cc1ccc(-c2noc(-c3ccccc3C(=O)N3CCN(C)CC3)n2)cc1`, the AC40 was 11.5 µM. As for `O=C1Nc2ccccc2N=C(c2ccc3c(c2)OCO3)C1N(C(=O)c1ccc2ccccc2c1)C1CC1` (configuration not stated), the figure is 1.26 µM. As for `O=C(Nc1ccccn1)c1c(O)c2cccc3c2n(c1=O)CCC3`, the figure is 18.4 µM; as for `O=C(Cc1ccccc1)Nc1nc(-c2cccs2)cs1`, 8.2 µM; as for `O=C(c1cc2c(s1)-c1ccccc1OC2)N1CCCC1`, 1.71 µM.

On to `C=CCN(C(=O)CC(NC(C)=O)c1ccccc1)c1nc(-c2ccc(S(C)(=O)=O)cc2)cs1` (configuration not stated), for which the AC40 is 0.992 µM.

In the case of `NC(=O)c1ccc(OCc2ccccc2)nc1`, the AC40 is 5.4 µM. The result for `Cc1ccc(OCc2cc(C(=O)N3CCN(C4CCCCC4)CC3)no2)cc1C` reads 10 µM.

In the case of `CC(C)CN1C(=O)c2ccc(NC(=O)c3cccs3)cc2C1=O`, the AC40 is 3.84 µM. Take `O=C(Nc1ccc(Cl)c(Cl)c1)Nc1ccccc1O`: the AC40 is 1.14 µM. As for `COc1ccc(NC(=O)c2ccc3ccccc3c2OC)cc1`, the figure is 2.56 µM.
